Source: US6525001B1, “Substituted pyrimidine and pyridine herbicides” (Mid-American Commercialization Corporation, priority 1997, dated 2003)

Experiments:
Type in all cases: in vivo
[1] = tested on: purple nutsedge (Cyperus rotundus); assay: Test E pre-/postemergence/post directed; parameters: key: 0 is no injury; 100 is complete control
Excerpt: (§1) Seeds, tubers, or plant parts of alexandergrass (Brachiaria plantaginea), annual bluegrass (Poa annua), arrowleaf sida (Sida rhombifolia), barnyardgrass (Echinochloa crus-galli), bermudagrass (Cynodon dactylon), citrus (Citrus sinensis), common chickweed (Stellaria media), common purslane (Portulaca oleracea), common ragweed (Ambrosia elatior), common groundsel (Senecio vulgaris), dallisgrass (Paspalum dilatatum), goosegrass (Eleusine indica), green foxtail (Setaria viridis), guineagrass (Panicum maximum), itchgrass (Rottboellia exaltata), johnson grass (Sorghum halepense), kochia (Kochia scoparia), large crabgrass (Digitaria sanguinalis), leafy spurge (Euphorbia esula), pitted morningglory (Ipomoea lacunosa), purple nutsedge (Cyperus rotundus), quackgrass (Agropyron repens), Russian thistle (Salsola kali), sandbur (Cenchrus echinatus), sourgrass (Trichachne insularis), Spanishneedles (Bidens bipinnata), sugarcane (Saccharum officinarum), surinam grass (Brachiaria decumbens) and tall mallow (Malva sylvestris) were planted into greenhouse pots of flats containing greenhouse planting medium. Plant species were grown grown in separate pots or individual compartments. Preemergence applications were made within one day of planting the seed or plant part. Postemergence applications were applied when the plants were in the two to four leaf stage (three to twenty cm).
(§2) Test chemicals were formulated in a non-phytotoxic solvent mixture which included a surfactant and applied preemergence to the soil surface, postemergence to the plants or as a post directed spray to plants and soil at the base of the target species. Untreated control plants and treated plants were placed in the greenhouse and visually evaluated for injury 13 to 21 days after herbicide application. Plant response ratings, summarized in Table E, are based on a 0 to 100 scale where 0 is no injury and 100 is complete control. A dash (−) response means no test result.

[2] = tested on: sandbur (Cenchrus echinatus); assay: Test E pre-/postemergence/post directed; parameters: key: 0 is no injury; 100 is complete control
Excerpt: as §1, §2

[3] = tested on: common ragweed (Ambrosia elatior); assay: Test E pre-/postemergence/post directed
Excerpt: as §1, §2

[4] = tested on: Spanishneedles (Bidens bipinnata); assay: Test E pre-/postemergence/post directed
Excerpt: as §1, §2

[5] = tested on: bermudagrass (Cynodon dactylon); assay: Test E pre-/postemergence/post directed; details: PREEMERGENCE
Excerpt: as §1, §2

[6] = tested on: johnson grass (Sorghum halepense); assay: Test E pre-/postemergence/post directed
Excerpt: as §1, §2

[7] = tested on: common groundsel (Senecio vulgaris); assay: Test E pre-/postemergence/post directed
Excerpt: as §1, §2

[8] = tested on: alexandergrass (Brachiaria plantaginea); assay: Test E pre-/postemergence/post directed
Excerpt: as §1, §2

[9] = tested on: pitted morningglory (Ipomoea lacunosa); assay: Test E pre-/postemergence/post directed
Excerpt: as §1, §2

[10] = tested on: sandbur (Cenchrus echinatus); assay: Test E pre-/postemergence/post directed; details: PREEMERGENCE
Excerpt: as §1, §2

[11] = tested on: large crabgrass (Digitaria sanguinalis); assay: Test E pre-/postemergence/post directed
Excerpt: as §1, §2

[12] = tested on: itchgrass (Rottboellia exaltata); assay: Test E pre-/postemergence/post directed
Excerpt: as §1, §2

[13] = tested on: wild poinsettia (Euphorbia heterophylla); assay: Test C; parameters: key: 0 was no effect; 100 was complete control; details: PREEMERGENCE
[14] = tested on: ladysthumb smartweed (Polygonum persicaria); assay: Test C; details: PREEMERGENCE
[15] = tested on: ivyleaf morningglory (Ipomoea hederacea); assay: Test C; details: PREEMERGENCE
[16] = tested on: eastern black nightshade (Solanum ptycanthum); assay: Test C; parameters: key: 0 was no effect; 100 was complete control; details: PREEMERGENCE
[17] = tested on: velvetleaf (Abutilon theophrasti); assay: Test C; details: PREEMERGENCE
[18] = tested on: lambsquarters (Chenopodium album); assay: Test C; parameters: key: 0 was no effect; 100 was complete control; details: PREEMERGENCE
[19] = tested on: large crabgrass (Digitaria sanguinalis); assay: Test C; parameters: key: 0 was no effect; 100 was complete control; details: PREEMERGENCE
[20] = tested on: arrowleaf sida (Sida rhombifolia); assay: Test C; parameters: key: 0 was no effect; 100 was complete control; details: PREEMERGENCE
[21] = tested on: surinam grass (Brachiaria decumbens); assay: Test E pre-/postemergence/post directed; details: PREEMERGENCE
Excerpt: as §1, §2

Cc1cnc(-n2cnc(C(F)(F)F)c2)nc1Cc1cccc(C(F)(F)F)c1 [Compound 44]
Plant response rating, Purple nutsedge ([1]; POSTEMERGENCE, Rate 125 g/ha): 0 | Plant response rating, Purple nutsedge ([1]; POSTEMERGENCE, Rate 250 g/ha): 0 | Plant response rating, Purple nutsedge ([1]; PREEMERGENCE, Rate 32 g/ha): 0 | Plant response rating, Purple nutsedge ([1]; PREEMERGENCE, Rate 64 g/ha): 0 | Plant response rating, Purple nutsedge ([1]; PREEMERGENCE, Rate 125 g/ha): 0 | Plant response rating, Purple nutsedge ([1]; PREEMERGENCE, Rate 250 g/ha): 0 | Plant response rating, Sandbur ([2]; POSTEMERGENCE, Rate 125 g/ha): 0 | Plant response rating, Sandbur ([2]; POSTEMERGENCE, Rate 250 g/ha): 0 | Plant response rating, Sandbur ([2]; PREEMERGENCE, Rate 32 g/ha): 0 | Plant response rating, Com. ragweed ([3]; POSTEMERGENCE, Rate 125 g/ha): 10 | Plant response rating, Com. ragweed ([3]; POSTEMERGENCE, Rate 250 g/ha): 20 | Plant response rating, Com. ragweed ([3]; PREEMERGENCE, Rate 32 g/ha): 40 | Plant response rating, Com. ragweed ([3]; PREEMERGENCE, Rate 64 g/ha): 85 | Plant response rating, Com. ragweed ([3]; PREEMERGENCE, Rate 125 g/ha): 98 | Plant response rating, Spanishneedles ([4]; POSTEMERGENCE, Rate 125 g/ha): 10 | Plant response rating, Spanishneedles ([4]; POSTEMERGENCE, Rate 250 g/ha): 10 | Plant response rating, Spanishneedles ([4]; PREEMERGENCE, Rate 32 g/ha): 20 | Plant response rating, Spanishneedles ([4]; PREEMERGENCE, Rate 64 g/ha): 60 | Plant response rating, Spanishneedles ([4]; PREEMERGENCE, Rate 125 g/ha): 70 | Plant response rating, Spanishneedles ([4]; PREEMERGENCE, Rate 250 g/ha): 98 | Plant response rating, Bermudagrass ([5]; Rate 32 g/ha): 30 | Plant response rating, Bermudagrass ([5]; Rate 64 g/ha): 80 | Plant response rating, Bermudagrass ([5]; Rate 125 g/ha): 98 | Plant response rating, Johnsongrass ([6]; POSTEMERGENCE, Rate 125 g/ha): 5 | Plant response rating, Johnsongrass ([6]; POSTEMERGENCE, Rate 250 g/ha): 10 | Plant response rating, Johnsongrass ([6]; PREEMERGENCE, Rate 32 g/ha): 30 | Plant response rating, Johnsongrass ([6]; PREEMERGENCE, Rate 125 g/ha): 60 | Plant response rating, Johnsongrass ([6]; PREEMERGENCE, Rate 250 g/ha): 75 | Plant response rating, Com. groundsel ([7]; POSTEMERGENCE, Rate 125 g/ha): 10 | Plant response rating, Com. groundsel ([7]; POSTEMERGENCE, Rate 250 g/ha): 10 | Plant response rating, Com. groundsel ([7]; PREEMERGENCE, Rate 32 g/ha): 98 | Plant response rating, Alexandergrass ([8]; POSTEMERGENCE, Rate 125 g/ha): 10 | Plant response rating, Alexandergrass ([8]; POSTEMERGENCE, Rate 250 g/ha): 10 | Plant response rating, Alexandergrass ([8]; PREEMERGENCE, Rate 64 g/ha): 40 | Plant response rating, Alexandergrass ([8]; PREEMERGENCE, Rate 125 g/ha): 40 | Plant response rating, Alexandergrass ([8]; PREEMERGENCE, Rate 250 g/ha): 50 | Plant response rating, P. morninglory ([9]; POSTEMERGENCE, Rate 125 g/ha): 30 | Plant response rating, P. morninglory ([9]; POSTEMERGENCE, Rate 250 g/ha): 40 | Plant response rating, P. morninglory ([9]; PREEMERGENCE, Rate 32 g/ha): 20 | Plant response rating, P. morninglory ([9]; PREEMERGENCE, Rate 64 g/ha): 30 | Plant response rating, P. morninglory ([9]; PREEMERGENCE, Rate 125 g/ha): 50 | Plant response rating, P. morninglory ([9]; PREEMERGENCE, Rate 250 g/ha): 50 | Plant response rating, Sandbur ([10]; Rate 64 g/ha): 60 | Plant response rating, Sandbur ([10]; Rate 125 g/ha): 70 | Plant response rating, Sandbur ([10]; Rate 250 g/ha): 80 | Plant response rating, Large crabgrass ([11]; POSTEMERGENCE, Rate 125 g/ha): 10 | Plant response rating, Large crabgrass ([11]; POSTEMERGENCE, Rate 250 g/ha): 10 | Plant response rating, Large crabgrass ([11]; PREEMERGENCE, Rate 64 g/ha): 60 | Plant response rating, Large crabgrass ([11]; PREEMERGENCE, Rate 125 g/ha): 70 | Plant response rating, Large crabgrass ([11]; PREEMERGENCE, Rate 250 g/ha): 60 | Plant response rating, Itchgrass ([12]; POSTEMERGENCE, Rate 125 g/ha): 5 | Plant response rating, Itchgrass ([12]; POSTEMERGENCE, Rate 250 g/ha): 10 | Plant response rating, Itchgrass ([12]; PREEMERGENCE, Rate 125 g/ha): 30 | Plant response rating, Itchgrass ([12]; PREEMERGENCE, Rate 250 g/ha): 40

CCc1cnc(-n2ccc(C(F)(F)F)n2)nc1Cc1cccc(C(F)(F)F)c1 [Compound 46]
Plant response rating, Wild poinsettia ([13]; Rate 35 g/ha): 0 | Plant response rating, Wild poinsettia ([13]; Rate 70 g/ha): 15 | Plant response rating, Wild poinsettia ([13]; Rate 140 g/ha): 20 | Plant response rating, Ladysthumb ([14]; Rate 35 g/ha): 25 | Plant response rating, Ladysthumb ([14]; Rate 70 g/ha): 10 | Plant response rating, Ladysthumb ([14]; Rate 140 g/ha): 50 | Plant response rating, I. morningglory ([15]; Rate 35 g/ha): 45 | Plant response rating, I. morningglory ([15]; Rate 70 g/ha): 50 | Plant response rating, I. morningglory ([15]; Rate 140 g/ha): 50 | Plant response rating, Purple nutsedge ([1]; PREEMERGENCE, Rate 32 g/ha): 0 | Plant response rating, Purple nutsedge ([1]; PREEMERGENCE, Rate 64 g/ha): 0 | Plant response rating, Purple nutsedge ([1]; PREEMERGENCE, Rate 125 g/ha): 0 | Plant response rating, Purple nutsedge ([1]; PREEMERGENCE, Rate 250 g/ha): 0 | Plant response rating, Sandbur ([2]; PREEMERGENCE, Rate 32 g/ha): 0 | Plant response rating, E. blacknightsh ([16]; Rate 35 g/ha): 80 | Plant response rating, E. blacknightsh ([16]; Rate 70 g/ha): 100 | Plant response rating, E. blacknightsh ([16]; Rate 140 g/ha): 100 | Plant response rating, Velvetleaf ([17]; Rate 35 g/ha): 50 | Plant response rating, Velvetleaf ([17]; Rate 70 g/ha): 80 | Plant response rating, Velvetleaf ([17]; Rate 140 g/ha): 80 | Plant response rating, Lambsquarters ([18]; Rate 35 g/ha): 60 | Plant response rating, Lambsquarters ([18]; Rate 70 g/ha): 100 | Plant response rating, Lambsquarters ([18]; Rate 140 g/ha): 100 | Plant response rating, Large crabgrass ([19]; Rate 35 g/ha): 80 | Plant response rating, Large crabgrass ([19]; Rate 70 g/ha): 100 | Plant response rating, Large crabgrass ([19]; Rate 140 g/ha): 100 | Plant response rating, Arrowleaf sida ([20]; Rate 35 g/ha): 100 | Plant response rating, Arrowleaf sida ([20]; Rate 70 g/ha): 90 | Plant response rating, Arrowleaf sida ([20]; Rate 140 g/ha): 100 | Plant response rating, Com. ragweed ([3]; PREEMERGENCE, Rate 64 g/ha): 98 | Plant response rating, Com. ragweed ([3]; PREEMERGENCE, Rate 125 g/ha): 98 | Plant response rating, Surinam grass ([21]; Rate 125 g/ha): 40 | Plant response rating, Surinam grass ([21]; Rate 250 g/ha): 55 | Plant response rating, Spanishneedles ([4]; PREEMERGENCE, Rate 32 g/ha): 65 | Plant response rating, Spanishneedles ([4]; PREEMERGENCE, Rate 64 g/ha): 85 | Plant response rating, Spanishneedles ([4]; PREEMERGENCE, Rate 125 g/ha): 90 | Plant response rating, Spanishneedles ([4]; PREEMERGENCE, Rate 250 g/ha): 90 | Plant response rating, Bermudagrass ([5]; Rate 32 g/ha): 70 | Plant response rating, Bermudagrass ([5]; Rate 64 g/ha): 98 | Plant response rating, Alexandergrass ([8]; PREEMERGENCE, Rate 125 g/ha): 60 | Plant response rating, Alexandergrass ([8]; PREEMERGENCE, Rate 250 g/ha): 60 | Plant response rating, P. morninglory ([9]; PREEMERGENCE, Rate 32 g/ha): 65 | Plant response rating, P. morninglory ([9]; PREEMERGENCE, Rate 64 g/ha): 65 | Plant response rating, P. morninglory ([9]; PREEMERGENCE, Rate 125 g/ha): 65 | Plant response rating, P. morninglory ([9]; PREEMERGENCE, Rate 250 g/ha): 65 | Plant response rating, Sandbur ([10]; Rate 64 g/ha): 10 | Plant response rating, Sandbur ([10]; Rate 125 g/ha): 10 | Plant response rating, Sandbur ([10]; Rate 250 g/ha): 30 | Plant response rating, Large crabgrass ([11]; PREEMERGENCE, Rate 32 g/ha): 90 | Plant response rating, Large crabgrass ([11]; PREEMERGENCE, Rate 64 g/ha): 98 | Plant response rating, Itchgrass ([12]; PREEMERGENCE, Rate 125 g/ha): 40 | Plant response rating, Itchgrass ([12]; PREEMERGENCE, Rate 250 g/ha): 40
